From PubChem BioAssay AID256 (DTP/NCI, 2004)
Several values for one entry are separate records, joined by “and”; a condition that tells them apart may be missing. Equal entries are not always repeated. Toxic doses and inconclusive results are not listed. How the source made its calls: active means survival T/C of 150% or more; inactive means T/C below 125% in these data.

Test system: CD2F1 mice, L1210 leukemia ip, survival T/C
Test: NCI In Vivo Anticancer Drug Screen. Data for tumor model L1210 Leukemia (intraperitoneal) in CD2F1 (CDF1) mice
Conditions: higher = longer survival
In short: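 Compound-dosed mice with transplantable tumor versus matched vehicle controls; endpoint ratio T/C reported.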

[1] = endpoint: mean survival time, dose: 100.0 mg/kg/injection, schedule: Q01DX001 (ip), vehicle: saline with Tween-80
[2] = endpoint: mean survival time, dose: 200.0 mg/kg/injection, schedule: Q01DX001 (ip), vehicle: saline with Tween-80
[3] = endpoint: mean survival time, dose: 400.0 mg/kg/injection, schedule: Q01DX001 (ip), vehicle: saline with Tween-80
[4] = endpoint: mean survival time, dose: 25.0 mg/kg/injection, schedule: Q04DX003 (ip), vehicle: saline with Tween-80
[5] = endpoint: mean survival time, dose: 50.0 mg/kg/injection, schedule: Q04DX003 (ip), vehicle: saline with Tween-80
[6] = endpoint: mean survival time, dose: 100.0 mg/kg/injection, schedule: Q04DX003 (ip), vehicle: saline with Tween-80
[7] = endpoint: mean survival time, dose: 200.0 mg/kg/injection, schedule: Q04DX003 (ip), vehicle: saline with Tween-80
[8] = endpoint: mean survival time, dose: 400.0 mg/kg/injection, schedule: Q04DX003 (ip), vehicle: saline with Tween-80
[9] = endpoint: mean survival time, dose: 50.0 mg/kg/injection, schedule: Q04DX003 (ip), vehicle: saline
[10] = endpoint: mean survival time, dose: 100.0 mg/kg/injection, schedule: Q04DX003 (ip), vehicle: saline
[11] = endpoint: mean survival time, dose: 200.0 mg/kg/injection, schedule: Q04DX003 (ip), vehicle: saline
[12] = endpoint: mean survival time, dose: 100.0 mg/kg/injection, schedule: Q01DX009 (ip), vehicle: saline with Tween-80
[13] = endpoint: mean survival time, dose: 200.0 mg/kg/injection, schedule: Q01DX009 (ip), vehicle: saline with Tween-80
[14] = endpoint: mean survival time, dose: 12.5 mg/kg/injection, schedule: Q01DX009 (ip), vehicle: saline with Tween-80
[15] = endpoint: mean survival time, dose: 25.0 mg/kg/injection, schedule: Q01DX009 (ip), vehicle: saline with Tween-80
[16] = endpoint: mean survival time, dose: 50.0 mg/kg/injection, schedule: Q01DX009 (ip), vehicle: saline with Tween-80
[17] = endpoint: mean survival time, dose: 100.0 mg/kg/injection, schedule: Q04DX002 (ip), vehicle: saline with Tween-80
[18] = endpoint: mean survival time, dose: 200.0 mg/kg/injection, schedule: Q04DX002 (ip), vehicle: saline with Tween-80

Measured: T/C

Cc1cn(C2CC(O)C(CO)O2)c(=O)nc1NCc1cccs1 (stereo unspecified)
inactive: endpoint: median survival time, dose: 12.5 mg/kg/injection, schedule: Q01DX005 (ip), vehicle: water 103 % of control | endpoint: median survival time, dose: 25.0 mg/kg/injection, schedule: Q01DX005 (ip), vehicle: water 105 % of control | endpoint: median survival time, dose: 50.0 mg/kg/injection, schedule: Q01DX005 (ip), vehicle: water 106 % of control | endpoint: median survival time, dose: 100.0 mg/kg/injection, schedule: Q01DX005 (ip), vehicle: water 101 % of control | endpoint: median survival time, dose: 200.0 mg/kg/injection, schedule: Q01DX005 (ip), vehicle: water 103 % of control

COC(=O)c1cc(Cl)ccc1OCC(=O)Nc1ccccc1
inactive: [1] 90 % of control | [2] 94 % of control | [3] 94 % of control

CC(=O)C1=C(O)C2(O)C(=O)c3c(c(C)c4ccc(C)c(O)c4c3O)CC2C(N)C1=O (stereo unspecified)
inactive: endpoint: mean survival time, dose: 3.75 mg/kg/injection, schedule: Q01DX009 (ip), vehicle: saline + alcohol 102 % of control and 105 % of control | endpoint: mean survival time, dose: 7.3 mg/kg/injection, schedule: Q01DX009 (ip), vehicle: saline + alcohol 103 % of control | endpoint: mean survival time, dose: 7.5 mg/kg/injection, schedule: Q01DX009 (ip), vehicle: saline + alcohol 107 % of control | endpoint: mean survival time, dose: 15.0 mg/kg/injection, schedule: Q01DX009 (ip), vehicle: saline + alcohol 107 % of control and 108 % of control | endpoint: mean survival time, dose: 30.0 mg/kg/injection, schedule: Q01DX009 (ip), vehicle: saline + alcohol 115 % of control | endpoint: mean survival time, dose: 60.0 mg/kg/injection, schedule: Q01DX009 (ip), vehicle: saline + alcohol 107 % of control and 111 % of control

CC(=O)N(C(C)=O)c1ncc2ccccc2c1-c1ccc(N)cc1
inactive: [4] 92 % of control | [5] 89 % of control | [6] 94 % of control

CC(=O)Nc1ccc(/C=N\NC(=O)C2CC2)cc1
inactive: [6] 93 % of control | [7] 96 % of control | [8] 93 % of control

CC(=O)SCCC(=O)O
inactive: endpoint: mean survival time, dose: 25.0 mg/kg/injection, schedule: Q04DX003 (ip), vehicle: saline 96 % of control | [9] 104 % of control

Nc1ncnc2c1ncn2C1OC(C[Se](=O)c2ccccc2)C(O)C1O (stereo unspecified)
inactive: endpoint: median survival time, dose: 12.5 mg/kg/injection, schedule: Q01DX005 (ip), vehicle: Klucel (hydroxypropylcellulose) (HPC) 102 % of control | endpoint: median survival time, dose: 25.0 mg/kg/injection, schedule: Q01DX005 (ip), vehicle: Klucel (hydroxypropylcellulose) (HPC) 106 % of control | endpoint: median survival time, dose: 50.0 mg/kg/injection, schedule: Q01DX005 (ip), vehicle: Klucel (hydroxypropylcellulose) (HPC) 103 % of control | endpoint: median survival time, dose: 100.0 mg/kg/injection, schedule: Q01DX005 (ip), vehicle: Klucel (hydroxypropylcellulose) (HPC) 103 % of control | endpoint: median survival time, dose: 200.0 mg/kg/injection, schedule: Q01DX005 (ip), vehicle: Klucel (hydroxypropylcellulose) (HPC) 104 % of control

O=[N+]([O-])c1cc(P(=O)(O)O)c(Cl)cc1Cl
inactive: [9] 101 % of control | [10] 90 % of control | [11] 93 % of control

CN(Cc1ccc(Cl)cc1)N=Nc1ccc(C#N)cc1
inactive: [12] 98 % of control | [13] 107 % of control | endpoint: mean survival time, dose: 400.0 mg/kg/injection, schedule: Q01DX009 (ip), vehicle: saline with Tween-80 93 % of control

CC(=C(C#N)C#N)c1ccccc1
inactive: [14] 92 % of control | [15] 89 % of control | [16] 87 % of control

Cc1ccc(NC(=O)NC(C)C)c(C)c1
inactive: endpoint: mean survival time, dose: 6.25 mg/kg/injection, schedule: Q01DX009 (ip), vehicle: saline with Tween-80 97 % of control | [14] 100 % of control | [15] 97 % of control

CC(C)CCCC(C)C1CCC2C3CC=C4CC(O)CCC4(C)C3CCC12C (stereo unspecified) (tested in a mixture with another compound)
inactive: endpoint: mean survival time, dose: 12.5 mg/kg/injection, schedule: Q01DX009 (ip), vehicle: water 102 % of control | endpoint: mean survival time, dose: 25.0 mg/kg/injection, schedule: Q01DX009 (ip), vehicle: water 100 % of control | endpoint: mean survival time, dose: 50.0 mg/kg/injection, schedule: Q01DX009 (ip), vehicle: water 102 % of control

COc1ccc(OC)c(NC(=O)Nc2ccc(C)c([N+](=O)[O-])c2)c1
inactive: [16] 98 % of control | [12] 94 % of control | [13] 94 % of control

O=C(Nc1ccccc1)OC1CCCCC1
inactive: [6] 101 % of control | [7] 100 % of control | [8] 97 % of control

Cn1ncc2c1C(=O)c1nc(-c3ccccc3)c(-c3ccccc3)nc1C2=O
inactive: [9] 98 % of control | [10] 92 % of control

[Cl][Pt+2][Cl].[NH-]C1CCCC1[NH-] (stereo unspecified)
active: endpoint: median survival time, dose: 10.0 mg/kg/injection, schedule: Q04DX003 (ip), vehicle: Klucel (hydroxypropylcellulose) (HPC) 166 % of control and 173 % of control | endpoint: median survival time, dose: 20.0 mg/kg/injection, schedule: Q04DX003 (ip), vehicle: Klucel (hydroxypropylcellulose) (HPC) 196 % of control and 333 % of control

Cc1ccnc(N)c1.[Cl-].[Cl-].[Cl-].[Cl-].[Pt+2]
inactive: [4] 106 % of control | [5] 101 % of control

CCOC(=O)c1nc(SC)n(C)c1C(=O)OCC
inactive: [17] 94 % of control | [18] 105 % of control

c1cc2[nH]c3ccncc3c2cn1
inactive: endpoint: mean survival time, dose: 50.0 mg/kg/injection, schedule: Q01DX009 (ip), vehicle: saline sonified 98 % of control | endpoint: mean survival time, dose: 100.0 mg/kg/injection, schedule: Q01DX009 (ip), vehicle: saline sonified 101 % of control

COc1ccc(C(O)c2nnc(C(O)c3ccc(OC)cc3)nn2)cc1 (stereo unspecified)
inactive: [6] 86 % of control | [7] 89 % of control | [8] 92 % of control

N#CC1CC(c2cccs2)Nc2ccccc2N1 (stereo unspecified)
inactive: [6] 94 % of control | [7] 90 % of control | [8] 100 % of control

Nc1cc(OCC(=O)O)c(Cl)cc1Cl
inactive: endpoint: mean survival time, dose: 50.0 mg/kg/injection, schedule: Q01DX009 (ip), vehicle: Klucel (hydroxypropylcellulose) (HPC) 96 % of control | endpoint: mean survival time, dose: 100.0 mg/kg/injection, schedule: Q01DX009 (ip), vehicle: Klucel (hydroxypropylcellulose) (HPC) 89 % of control | endpoint: mean survival time, dose: 200.0 mg/kg/injection, schedule: Q01DX009 (ip), vehicle: Klucel (hydroxypropylcellulose) (HPC) 93 % of control

CC1(C)N=C(N)N=C(N)N1c1ccc(OCC(=O)N2CCOCC2)c(Cl)c1
inactive: endpoint: mean survival time, dose: 6.25 mg/kg/injection, schedule: Q01DX009 (ip), vehicle: saline 98 % of control | endpoint: mean survival time, dose: 12.5 mg/kg/injection, schedule: Q01DX009 (ip), vehicle: saline 97 % of control | endpoint: mean survival time, dose: 25.0 mg/kg/injection, schedule: Q01DX009 (ip), vehicle: saline 92 % of control | endpoint: mean survival time, dose: 50.0 mg/kg/injection, schedule: Q01DX009 (ip), vehicle: saline 98 % of control | endpoint: mean survival time, dose: 100.0 mg/kg/injection, schedule: Q01DX009 (ip), vehicle: saline 98 % of control

O=C1C2CCN(CC2)C1COc1cccc2ccccc12 (stereo unspecified)
inactive: [1] 106 % of control | [2] 95 % of control | [3] 102 % of control

[Cl][Pt+2][Cl].[NH-]c1cc(Cl)c(Cl)cc1[NH-]
inactive: endpoint: mean survival time, dose: 2.5 mg/kg/injection, schedule: Q01DX009 (ip), vehicle: saline with Tween-80 107 % of control | endpoint: mean survival time, dose: 5.0 mg/kg/injection, schedule: Q01DX009 (ip), vehicle: saline with Tween-80 105 % of control | endpoint: mean survival time, dose: 10.0 mg/kg/injection, schedule: Q01DX009 (ip), vehicle: saline with Tween-80 111 % of control | endpoint: mean survival time, dose: 20.0 mg/kg/injection, schedule: Q01DX009 (ip), vehicle: saline with Tween-80 106 % of control and 112 % of control | endpoint: mean survival time, dose: 40.0 mg/kg/injection, schedule: Q01DX009 (ip), vehicle: saline with Tween-80 105 % of control and 112 % of control | endpoint: mean survival time, dose: 80.0 mg/kg/injection, schedule: Q01DX009 (ip), vehicle: saline with Tween-80 110 % of control | endpoint: mean survival time, dose: 160.0 mg/kg/injection, schedule: Q01DX009 (ip), vehicle: saline with Tween-80 104 % of control | endpoint: mean survival time, dose: 320.0 mg/kg/injection, schedule: Q01DX009 (ip), vehicle: saline with Tween-80 107 % of control

O=C(O)C1CCc2c(cnn2-c2ccc(Cl)cc2)C1 (stereo unspecified)
inactive: [17] 96 % of control | [18] 103 % of control | endpoint: mean survival time, dose: 400.0 mg/kg/injection, schedule: Q04DX002 (ip), vehicle: saline with Tween-80 103 % of control

CCCCCCCC(C)/C=N/NC(=O)c1ccc[n+](C)c1 (stereo unspecified)
inactive: [10] 103 % of control | [11] 101 % of control

O=c1[nH]c(-c2ccccc2)c(N=Nc2ccccc2)c(=O)[nH]1
inactive: [1] 89 % of control | [2] 96 % of control | [3] 102 % of control
